Assay: Solubility of carvedilol in Pharmasolve
Type: physicochemical
Settings: solvent Pharmasolve (N-methyl-2-pyrrolidone)

In the case of COc1ccccc1OCCNCC(O)COc1cccc2[nH]c3ccccc3c12 (racemic) [carvedilol], the “solubility of carvedilol in Pharmasolve” value is reported as 1.6 gram of drug per gram of pharmasolve.

— US20060094771A1, “Carvedilol pharmasolve solvate” (priority 2002, published 2006)
